Measurements from US8039490B2, “Benzoyl-piperidine derivatives as dual modulators of the 5-HT2A and D3 receptors” (Hoffmann-La Roche Inc., priority 2006, dated 2011).
“And” between values parts separate entries of the source, which are not always exact repeats. Equal entries are not always repeated.

What was measured:
[1] = target: T1, human D3 dopamine receptor (Homo sapiens, UniProt P35462); experiment: Radioligand binding, human D3 receptor ([3H]-spiperone); conditions: first value of the cell; membranes of transfected HEK-293 EBNA cells, 0.5 nM [3H]-spiperone; read-out: Ki(nM) D3/5HT2A/D2: D3
T1 construct: expressed in transfected cells; host or cells: HEK-293 EBNA cells (transient transfection), membrane preparation
Method: (§1) The cells were harvested 48 h post-transfection, washed three times with cold PBS and stored at −80° C. prior to use. The pellet was suspended in cold 50 mM Tris-HCl buffer containing 10 mM EDTA (pH 7.4) and homogenized with a Polytron (Kinematica AG, Basel, Switzerland) for 20-30 sec at 12.000 rpm. After centrifugation at 48.000×g for 30 min at 4° C., the pellet was resuspended in cold 10 mM Tris-HCl buffer containing 0.1 mM EDTA (pH 7.4), homogenized, and centrifuged as above. This pellet was further resuspended in a smaller volume of ice cold 10 mM Tris-HCl buffer containing 0.1 mM EDTA (pH 7.4) and homogenized with a Polytron for 20-30 sec at 12.000 rpm. The protein content of this homogenate was determined with the Bio-Rad (Bradford) Protein Assay (Biorad Laboratories GmbH, München, Germany) according to the instructions of the manufacturer using gamma globulin as the standard. This homogenate was stored at −80° C. in aliquots and thawed immediately prior to use.
(§2) Aliquots of membrane preparations were thawed at RT, resupended in assay buffer (D2, D3: 50 mM Tris-HCl, 120 mM NaCl, 5 mM MgCl2, 1 mM EDTA, 5 mM KCl, 1.5 mM CaCl2, pH=7.4; 5-HT2A: 50 mM Tris-HCl, 10 mM MgCl2, 1 mM EGTA, pH=7.4), homogenized with a Polytron for 20-30 sec at 12.000 rpm and adjusted to a final concentration of approximately 7.5 μg protein/well (D2, D3) and 15 μg protein/well (5-HT2A), respectively.
(§3) The binding affinity (Ki) of the compounds was determined using radioligand binding. […] The nonspecific binding was determined with equally composed reaction mixtures in the presence of 10 μM unlabelled spiperone. Per well 45 μl of Microscint 40 (Perkin Elmer, Schwerzenbach, Switzerland) was added, plates for sealed, shaken for 20 min and counted for 3 min on a Topcount Microplate Scintillation Counter (Canberra Packard SA, Zürich, Switzerland) with quenching correction.
(§4) The CPM value for each duplicate of a concentration of competing compound was averaged (y1), then the % specific binding was calculated according to the equation (((y1−non-specific)/(total binding-non-specific))×100). Graphs were plotted with the % specific binding using XLfit, a curve fitting program that iteratively plots the data using Levenburg Marquardt algorithm. The single site competition analysis equation used was y=A+((B−A)/(+((x/C)^D))), where y is the % specific binding, A is the minimum y, B is the maximum y, C is the IC50, x is the log10 of the concentration of the competing compound and D is the slope of the curve (the Hill Coefficient). […] The affinity constant (Ki) was calculated using the Cheng-Prusoff equation KI =(IC50/1+([L]/Kd), where [L] is the concentration of radioligand and Kd is the dissociation constant of the radioligand at the receptor as determined by the saturation isotherm.

[2] = target: T2, human 5-HT2A serotonin receptor (Homo sapiens, UniProt P28223); experiment: Radioligand binding, human 5-HT2A receptor ([3H]-ketanserin); conditions: second value of the cell; membranes of transfected HEK-293 EBNA cells, 1.1 nM [3H]-ketanserin; read-out: Ki(nM) D3/5HT2A/D2: 5HT2A
T2 construct: expressed in transfected cells; host or cells: HEK-293 EBNA cells (transient transfection), membrane preparation
Method: as §1, §2, §3, §4

[3] = target: T3, human D2 dopamine receptor (Homo sapiens, UniProt P14416); experiment: Radioligand binding, human D2 receptor ([3H]-spiperone); conditions: third value of the cell; membranes of transfected HEK-293 EBNA cells, 0.7 nM [3H]-spiperone; read-out: Ki(nM) D3/5HT2A/D2: D2
T3 construct: expressed in transfected cells; host or cells: HEK-293 EBNA cells (transient transfection), membrane preparation
Method: as §1, §2, §3, §4

T3 sequence (P14416 whole entry): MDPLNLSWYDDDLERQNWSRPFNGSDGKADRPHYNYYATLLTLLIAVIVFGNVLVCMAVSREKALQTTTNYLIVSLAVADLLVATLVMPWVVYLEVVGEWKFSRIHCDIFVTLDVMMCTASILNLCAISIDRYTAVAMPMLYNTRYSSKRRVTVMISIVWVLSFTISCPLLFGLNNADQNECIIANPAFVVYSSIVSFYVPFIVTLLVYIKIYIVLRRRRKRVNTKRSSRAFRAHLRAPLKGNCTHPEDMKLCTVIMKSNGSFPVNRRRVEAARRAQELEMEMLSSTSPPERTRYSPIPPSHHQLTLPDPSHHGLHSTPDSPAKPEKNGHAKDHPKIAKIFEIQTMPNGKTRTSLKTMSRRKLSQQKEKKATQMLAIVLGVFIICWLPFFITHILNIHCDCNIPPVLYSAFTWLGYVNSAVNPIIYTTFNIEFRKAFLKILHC
T2 sequence (P28223 whole entry): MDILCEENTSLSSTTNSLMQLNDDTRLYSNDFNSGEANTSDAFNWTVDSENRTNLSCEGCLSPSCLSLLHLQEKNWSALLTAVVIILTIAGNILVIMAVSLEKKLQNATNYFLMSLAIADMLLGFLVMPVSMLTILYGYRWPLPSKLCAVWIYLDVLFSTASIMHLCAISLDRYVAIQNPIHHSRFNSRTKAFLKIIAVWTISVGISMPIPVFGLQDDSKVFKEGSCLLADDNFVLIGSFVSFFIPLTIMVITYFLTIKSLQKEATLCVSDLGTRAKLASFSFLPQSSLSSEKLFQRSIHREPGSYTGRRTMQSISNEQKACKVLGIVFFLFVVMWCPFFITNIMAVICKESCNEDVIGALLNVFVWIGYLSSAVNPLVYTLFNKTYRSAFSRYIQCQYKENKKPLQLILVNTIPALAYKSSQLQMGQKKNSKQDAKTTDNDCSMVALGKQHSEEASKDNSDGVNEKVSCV
T1 sequence (P35462 whole entry): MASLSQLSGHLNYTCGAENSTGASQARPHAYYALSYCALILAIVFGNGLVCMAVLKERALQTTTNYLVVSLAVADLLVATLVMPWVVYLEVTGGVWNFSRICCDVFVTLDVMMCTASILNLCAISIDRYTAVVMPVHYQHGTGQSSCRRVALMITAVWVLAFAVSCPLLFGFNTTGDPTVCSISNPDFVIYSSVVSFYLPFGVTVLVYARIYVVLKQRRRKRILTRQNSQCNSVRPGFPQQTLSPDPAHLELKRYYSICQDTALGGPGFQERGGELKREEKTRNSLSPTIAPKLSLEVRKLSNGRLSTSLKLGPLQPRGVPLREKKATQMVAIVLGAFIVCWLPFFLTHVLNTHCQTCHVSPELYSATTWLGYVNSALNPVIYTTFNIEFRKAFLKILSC

Row | Molecule | Ki [1] | Ki [2] | Ki [3]
1 | 1-(4-Ethoxy-phenyl)-3-{4-[4-(4-fluoro-benzoyl)-piperidin-1-yl]-butyl}-urea [Example 70] | 97 nM | 22 nM | 2710 nM
2 | O=C(NC[C@@H]1C[C@H]1CN1CCC(C(=O)c2ccc(F)cc2)CC1)Nc1ccc(Cl)cc1 (relative stereo) [Example 46, 1-(4-Chloro-phenyl)-3-{Trans-2-[4-(4-fluoro-benzoyl)-piperidin-1-ylmethyl]-cyclopropylmethyl}-urea] | 15 nM | 2 nM | 30 nM
3 | O=C(N[C@H]1CC[C@H](CCN2CCC(C(=O)c3ccc(F)cc3F)CC2)CC1)C1CCOC1 (relative stereo) [Example 61, Tetrahydro-furan-3-carboxylic acid trans (4-{2-[4-(2,4-difluoro-benzoyl)-piperidin-1-yl]-ethyl}-cyclohexyl)-amide] | 35 nM | 64 nM | 2900 nM
4 | O=C(N[C@H]1CC[C@H](CCN2CCC(C(=O)c3ccc(F)cc3)CC2)CC1)c1ccc(-n2cccc2)cc1 [Example 9] | 6 nM | 2 nM | 106 nM
5 | CC(C)(C(=O)N[C@H]1CC[C@H](CCN2CCC(C(=O)c3ccc(F)cc3)CC2)CC1)c1ccc(Cl)cc1 [Example 14, 2-(4-Chloro-phenyl)-N-trans (4-{2-[4-(4-fluoro-benzoyl)-piperidin-1-yl]-ethyl}-cyclohexyl)-isobutyramide] | 144 nM | 12 nM | 96 nM
6 | O=C(N[C@H]1CC[C@H](CCN2CCC(C(=O)c3ccc(F)cc3)CC2)CC1)c1ccnc2ncccc12 [Example 20, [1,8]Naphthyridine-4-carboxylic acid trans-(4-{2-[4-(4-fluoro-benzoyl)-piperidin-1-yl]-ethyl}-cyclohexyl)-amide] | 18 nM | 5 nM | 586 nM
7 | O=C(N[C@H]1CC[C@H](CCN2CCC(C(=O)c3ccc(F)cc3)CC2)CC1)c1ccc(Cl)cc1Cl [Example 22, 2,4-Dichloro-N-trans (4-{2-[4-(4-fluoro-benzoyl)-piperidin-1-yl]-ethyl}-cyclohexyl)-benzamide] | 15 nM | 4 nM | 149 nM
8 | O=C(N[C@H]1CC[C@H](CCN2CCC(C(=O)c3ccc(F)cc3)CC2)CC1)c1ccc(S(=O)(=O)c2ccc(Cl)cc2)cc1 [Example 23, 4-(4-Chloro-benzenesulfonyl)-N-trans (4-{2-[4-(4-fluoro-benzoyl)-piperidin-1-yl]-ethyl}-cyclohexyl)-benzamide] | 72 nM | 5 nM | 73 nM
9 | CCOCCC(=O)N[C@H]1CC[C@H](CCN2CCC(C(=O)c3ccc(F)cc3)CC2)CC1 [Example 25, 3-Ethoxy-N-trans (4-{2-[4-(4-fluoro-benzoyl)-piperidin-1-yl]-ethyl}-cyclohexyl)-propionamide] | 13 nM | 269 nM | 777 nM
10 | O=C(CC(F)(F)F)N[C@H]1CC[C@H](CCN2CCC(C(=O)c3ccc(F)cc3)CC2)CC1 [Example 26, 3,3,3-Trifluoro-N-trans-(4-{2-[4-(4-fluoro-benzoyl)-piperidin-1-yl]-ethyl}-cyclohexyl)-propionamide] | 17 nM | 14 nM | 684 nM
11 | O=C(N[C@H]1CC[C@H](CCN2CCC(C(=O)c3ccc(F)cc3)CC2)CC1)C1CCCCC1 [Example 29, Cyclohexanecarboxylic acid trans-(4-{2-[4-(4-fluoro-benzoyl)-piperidin-1-yl]-ethyl}-cyclohexyl)-amide] | 32 nM and 37 nM | 8 nM | 450 nM
12 | O=C(N[C@H]1CC[C@H](CCN2CCC(C(=O)c3ccc(F)cc3)CC2)CC1)c1ccc(N2CCOCC2)nn1 [Example 30A25, 6-Morpholin-4-yl-pyridazine-3-carboxylic acid trans (4-{2-[4-(4-fluoro-benzoyl)-piperidin-1-yl]-ethyl}-cyclohexyl)-amide] | 26 nM | 5 nM | 1280 nM
13 | O=C(CCOc1ccccc1)N[C@H]1CC[C@H](CCN2CCC(C(=O)c3ccc(F)cc3)CC2)CC1 [Example 30A27, N-trans (4-{2-[4-(4-Fluoro-benzoyl)-piperidin-1-yl]-ethyl}-cydohexyl)-3-phenoxy-propionamide] | 8 nM | 8 nM | 1120 nM
14 | O=C(C#Cc1ccccc1)N[C@H]1CC[C@H](CCN2CCC(C(=O)c3ccc(F)cc3)CC2)CC1 [Example 30A28, 3-Phenyl-propynoic acid trans (4-{2-[4-(4-fluoro-benzoyl)-piperidin-1-yl]-ethyl}-cyclohexyl)-amide] | 9 nM | 5 nM | 470 nM
15 | CC(C)(CO)C(=O)N[C@H]1CC[C@H](CCN2CCC(C(=O)c3ccc(F)cc3)CC2)CC1 [Example 30A29, N-trans (4-{2-[4-(4-Fluoro-benzoyl)-piperidin-1-yl]-ethyl}-cyclohexyl)-3-hydroxy-2,2-dimethyl-propionamide] | 207 nM | 25 nM | 1010 nM
16 | Cc1cc(CC(=O)N[C@H]2CC[C@H](CCN3CCC(C(=O)c4ccc(F)cc4)CC3)CC2)on1 [Example 30A36] | 26 nM | 5 nM | 1280 nM
17 | COc1cc(CC(=O)N[C@H]2CC[C@H](CCN3CCC(C(=O)c4ccc(F)cc4)CC3)CC2)cc(OC)c1 [Example 30A37, 2-(3,5-Dimethoxy-phenyl)-N-trans (4-{2-[4-(4-fluoro-benzoyl)-piperidin-1-yl]-ethyl}-cyclohexyl)-acetamide] | 29 nM | 11 nM | 2000 nM
18 | CC(=O)OCC(=O)N[C@H]1CC[C@H](CCN2CCC(C(=O)c3ccc(F)cc3)CC2)CC1 [Example 30A58, Acetic acid trans (4-{2-[4-(4-fluoro-benzoyl)-piperidin-1-yl]-ethyl}-cyclohexylcarbamoyl)-methyl ester] | 30 nM | 15 nM | 2070 nM
19 | O=C(c1ccc(F)cc1)C1CCN(CC[C@H]2CC[C@H](NC(=O)C3(O)CC3)CC2)CC1 [Example 30A59, 1-Hydroxy-cyclopropanecarboxylic acid (trans-4-{2-[4-(4-fluoro-benzoyl)-piperidin-1-yl]-ethyl}-cyclohexyl)-amide] | 19 nM | 5 nM | 888 nM
20 | COC(=O)N[C@H]1CC[C@H](CCN2CCC(C(=O)c3ccc(F)cc3)CC2)CC1 [Example 30A64, Trans (4-{2-[4-(4-Fluoro-benzoyl)-piperidin-1-yl]-ethyl}-cyclohexyl)-carbamic acid methyl ester] | 19 nM | 13 nM | 625 nM
21 | O=C(N[C@H]1CC[C@H](CCN2CCC(O)(C(=O)c3ccccc3)CC2)CC1)c1ccnc2ccccc12 [Example 33, Quinoline-4-carboxylic acid trans-{4-[2-(4-benzoyl-4-hydroxy-piperidin-1-yl)-ethyl]-cyclohexyl}-amide] | 110 nM | 65 nM | 1980 nM
22 | O=C(N[C@H]1CC[C@H](CCN2CCC(F)(C(=O)c3ccccc3)CC2)CC1)c1ccnc2ccccc12 [Example 34, Quinoline-4-carboxylic acid trans-{4-[2-(4-benzoyl-4-fluoro-piperidin-1-yl)-ethyl]-cyclohexyl}-amide] | 23 nM | 6 nM | 192 nM
